Laboratory results reported in patent publication US12599602B2, “Methods for treating cholestasis” (Mirum Pharmaceuticals, Inc., priority 2019, dated 2026).
“And” between values parts separate entries of the source, which are not always exact repeats. Equal entries are not always repeated. Where two headings read alike, the source gives them in different places.

Key:
[1] = system: Children with Alagille Syndrome
Method: Children aged 1-18 years with a diagnosis of ALGS and evidence of cholestasis were eligible to enroll in the ICONIC clinical study, see Tables 12-14. During a long-term extension, participants with sBA levels above the upper limit of normal and/or an ITCHRO(OBS) score >1.5 were eligible for the 400 μg/kg BID dose (all participants received the 400 μg/kg BID dose). Inclusion criteria for the ICONIC study included having cholestasis, which was defined as at least one of 1) sBA concentration (total sBA) >3× the upper limit of normal, 2) serum conjugated bilirubin concentration >1 mg/dL, 3) fat-soluble vitamin deficiency not otherwise explained, 4) serum gamma-glutamyl transferase concentration >3× the upper limit of normal, and 3) intractable pruritus explainable only by liver disease. Inclusion criteria also included having significant pruritus, which was defined as an average daily score of >2 on the ITCHRO(OBS) scale for 2 consecutive weeks (0=no pruritus; 4=most severe pruritus). Exclusion criteria included having surgically disrupted enterohepatic circulation, a liver transplant, decompensated cirrhosis, or having any liver disease other than ALGS.
sBA responders were defined as those patients achieving ≥50% reduction from baseline in sBA at week 12 or 18. ITCHRO responders were defined as those patients achieving at least a 1-point reduction from Baseline in weekly morning ITCHRO(OBS) score at week 12 or 18.
In the open label extension, the effect of higher doses was explored by increasing dosage to a maximum of 400 μg/kg BID in eligible participants.
Efficacy assessments were based on changes from baseline in sBA concentration, weekly average ITCHRO(OBS) scores (0, none; 4, most severe), CSS score (0, none; 4 most severe), and Clinician Xanthoma Scale score (0, none; 4, disabling). […] During the long-term extension, efficacy assessments were conducted every 12 weeks. Serum total cholesterol and serum 7αC4 concentration were also monitored during the ICONIC clinical study, among other measures.
sBA were measured using a fully validated liquid chromatography-electrospray ionization-mass electrospray (LC-ESI-MS) method using stable-isotope dilution analysis to measure serum concentrations of principal bile acids (cholic, chenodeoxycholic, ursodeoxycholic, deoxycholic acid, lithocholic, and their corresponding glycine and taurine conjugates). Serum samples were analyzed in the Division of Pathology and Laboratory Medicine, Cincinnati Children's Hospital Medical Center according to SOP #PATH.CMS.1033. Calibration standards of individual bile acids were in the range of 50-25,000 ng/mL and Quality Control samples were prepared at concentrations of 100, 500, 1000, 2500, and 20000 ng/mL. The intra- and inter-assay imprecision of the method for individual bile acids measured was within the accepted GLP quality assurance guidelines of <15% coefficient of variance for these QC samples. The lower limit of quantification of the assay was set at 100 ng/mL and the imprecision at this concentration was <20%. The limit of detection of the assay was 5 ng/mL. Total sBA is represented by the sum of the individual bile acid species measured.

[2] = system: Overweight and obese adults; test: Phase 1 blinded, placebo-controlled, dose-ranging clinical study (NCT02475317), fecal bile acid excretion
Method: Participants consumed a low-fiber diet (<10 mg/day) for 2 days before randomization and during the 7-day treatment period. Measurements were taken of fBA, sBA concentration, and serum 7αC4 concentration (which is a biomarker of bile acid synthesis) prior to drug administration and at day 7.

[3] = Withdrawal-Week 22, Maralixibat group
[4] = first 18 weeks of treatment, 400 μg/kg QD
[5] = one line per Subject ID (Table 18)
[6] = one line per Subject ID (Table 19)
[7] = sBA Normalization (<8.5 μmol/L)

maralixibat
ItchRO (Obs) responders, Decrease from baseline ≥1.25 ([1]; Open-label Week 48): 58.6% | ItchRO (Obs) responders, Decrease from baseline ≥1.5 ([1]; Open-label Week 48): 51.7% | C4, Mean ([1]; Week 48, n = 15): 20.4 ng/mL | Serum cholesterol, Mean ([1]; Week 48, n = 15): 340.3 mg/dL | C4, Mean ([1]; Week 191, n = 15): 30.4 ng/mL | Serum cholesterol, Mean ([1]; Week 191, n = 15): 277.5 mg/dL | ItchRO (Obs) responders, Decrease from baseline ≥1 [1, 3]: 53.8% | ItchRO (Obs) responders, Decrease from baseline ≥1.25 [1, 3]: 46.2% | ItchRO (Obs) responders, Decrease from baseline ≥1.5 [1, 3]: 23.1% | study days with minimal or no pruritus (ITCHRO(OBS)≤1) ([1]; after 98 weeks, across participants): over 89% | Clinician xanthoma scale scores ([1]; all participants by week 48): improved significantly | CSS score, mean reduction ([1]; at 191 weeks): 2.4 points | ITCHRO(OBS) score, mean change from baseline ([1]; at 191 weeks): −2.5 | sBA levels, reduction from baseline ([1]; at 191 weeks): about 57% | ITCHRO(OBS) final score ([1]; at 193 weeks): about 0.33 | ITCHRO(OBS) score, mean reduction ([1]; at 193 weeks): over 2 points | CSS final average score ([1]; by week 48, all participants): about 1.5 | CSS scores, average decrease ([1]; by week 48, all participants): over 1.5 points | Clinician Xanthoma Score, reduction from baseline ([1]; by week 191): 0.7 points | ITCHRO(OBS) scores, average decrease relative to baseline ([1]; by week 193 (second statement of b611)): over 1.5 points | PedsQL Multidimensional Fatigue Scale scores ([1]; core study and extension): Improvements | tolerability ([1]; core study and extension, over three years): well tolerated | tolerability ([1]; doses up to 800 μg/kg/day, treatment duration up to 4 years): generally well tolerated | ITCHRO(OBS) scores, mean change from baseline [1, 4]: −1.7 | sBA concentration, decrease [1, 4]: 31% | Serum Bile Acid, Change from Baseline to Week 48 [1, 5]: −166.3 μmol/L and −281.4 μmol/L and 166.4 μmol/L and −121.1 μmol/L and 4.3 μmol/L (2×) and −251.0 μmol/L and 3.3 μmol/L and −27.3 μmol/L and −155.5 μmol/L and −240.2 μmol/L and 9.0 μmol/L and 143.1 μmol/L and −112.2 μmol/L and 16.4 μmol/L and −10.9 μmol/L and −16.9 μmol/L and 54.5 μmol/L and −620.4 μmol/L and −23.9 μmol/L and −377.3 μmol/L and −205.9 μmol/L and −270.4 μmol/L and 25.5 μmol/L and −203.6 μmol/L and −96.4 μmol/L and −33.9 μmol/L and −56.4 μmol/L | Serum Bile Acid, Week 48 [1, 5]: 131.8 µmol/L and 98.5 µmol/L and 578.1 µmol/L and 20.8 µmol/L and 333.0 µmol/L and 119.6 µmol/L and 117.7 µmol/L and 492.6 µmol/L and 427.9 µmol/L and 199.8 µmol/L and 29.2 µmol/L and 891.6 µmol/L and 163.4 µmol/L and 60.2 µmol/L and 12.0 µmol/L and 23.6 µmol/L and 126.1 µmol/L and 37.0 µmol/L and 7.0 µmol/L and 101.9 µmol/L and 293.3 µmol/L and 65.0 µmol/L and 110.9 µmol/L and 35.8 µmol/L and 208.0 µmol/L and 55.8 µmol/L and 15.6 µmol/L and 22.9 µmol/L | ItchRO(Obs) Weekly Morning Average Score, Change from Baseline to Week 48 [1, 6]: −0.12 and 0.49 and −0.45 and 1.29 and −3.86 and 0.00 and −2.57 and −1.86 (2×) and −1.71 (2×) and −1.00 (2×) and −1.29 and −1.67 and −1.14 and −1.03 and −3.29 (2×) and −3.43 and −2.50 and −2.71 (2×) and −3.50 and −2.29 and −0.17 and −1.43 and −0.83 | ItchRO(Obs) Weekly Morning Average Score, Week 48 [1, 6]: 2.71 and 3.20 and 1.83 and 3.71 and 0.14 and 1.86 and 0.71 and 1.14 (2×) and 0.29 (2×) and 2.00 (2×) and 1.71 (2×) and 1.00 and 1.40 and 0.00 (7×) and 1.43 and 1.57 and 3.50 and 2.17 | Height Z-score, increase from baseline ([1]; participants in the ICONIC clinical study): 0.5 | growth after dose increase ([1]; patients (N=15) given 400 μg/kg BID after 400 μg/kg QD for in excess of about 40 weeks): further increase in growth from baseline | ITCHRO(OBS), LS mean difference maralixibat vs placebo ([1]; randomized withdrawal): −1.5 | sBA levels, least squares mean difference maralixibat vs placebo ([1]; randomized withdrawal (week 18-22)): −114.0 | ItchRO(Obs) Weekly Morning Average Score, Average Change from Baseline [1, 7]: −3.50 | ItchRO(Obs) Weekly Morning Average Score, Week 48 Average Score [1, 7]: 0.00 | ItchRO(Obs) Weekly Morning Average Score, Average Change from Baseline ([1]; sBA ≥50% Reduction): −1.86 | ItchRO(Obs) Weekly Morning Average Score, Week 48 Average Score ([1]; sBA ≥50% Reduction): 1.07 | ItchRO(Obs) Weekly Morning Average Score, Average Change from Baseline ([1]; sBA ≥60% Reduction): −2.12 | ItchRO(Obs) Weekly Morning Average Score, Week 48 Average Score ([1]; sBA ≥60% Reduction): 0.82 | ItchRO(Obs) Weekly Morning Average Score, Average Change from Baseline ([1]; sBA ≥70% Reduction): −2.31 | ItchRO(Obs) Weekly Morning Average Score, Week 48 Average Score ([1]; sBA ≥70% Reduction): 0.62 | ItchRO(Obs) Weekly Morning Average Score, Average Change from Baseline ([1]; sBA ≥80% Reduction): −2.79 | ItchRO(Obs) Weekly Morning Average Score, Week 48 Average Score ([1]; sBA ≥80% Reduction): 0.11 | ItchRO(Obs) Weekly Morning Average Score, Average Change from Baseline ([1]; sBA ≥90% Reduction): −2.71 | ItchRO(Obs) Weekly Morning Average Score, Week 48 Average Score ([1]; sBA ≥90% Reduction): 0.00 | relation between reduction in sBA concentration and reduction of severity of pruritus (ITCHRO(OBS)) ([1]; week 48): positive correlation | sBA response, Week 48 (N = 28) n (%) ([1]; ≥50% Reduction): 13 (46.4%) | sBA response, Week 48 (N = 28) n (%) ([1]; ≥60% Reduction): 11 (39.3%) | sBA response, Week 48 (N = 28) n (%) ([1]; ≥70% Reduction): 8 (28.6%) | sBA response, Week 48 (N = 28) n (%) ([1]; ≥80% Reduction): 4 (14.3%) | sBA response, Week 48 (N = 28) n (%) ([1]; ≥90% Reduction): 1 (3.6%) | fBA excretion, mean change from baseline ([2]; 10 mg dose, 7 days): 515 µmol | fBA excretion, mean change from baseline ([2]; 20 mg dose, 7 days): 532 µmol | fBA excretion, mean change from baseline ([2]; 50 mg BID, 7 days): 1251 µmol | fBA excretion, mean change from baseline ([2]; 100 mg QD, 7 days): 1144 µmol | Mean sBA levels ([2]; 7 days): not elevated | fBA excretion ([2]; across doses): increased in a dose-dependent manner | treatment-emergent adverse events occurring in over 10% of participants ([2]; all doses): headache and diarrhea | treatment-emergent adverse events, severity ([2]; all doses): mild, and none were serious | Mean serum 7αC4 ([2]; baseline to day 7): increased
